How the values were obtained:
RAW 264.7 cells [1] = assay: Reporter gene (luciferase) expression assay, lipoplex transfection of RAW 264.7 cells; assay type: cell-based, murine; conditions: for in vitro transfection efficiencies relative to control mannosylated lipid 3: DOPE as co-lipid, lipid:DNA charge ratios 2:1 to 8:1, FIG. 4; for transfection efficiencies with DOPC as co-lipid compared to DOPE as co-lipid: lipid:DNA charge ratio of 8:1, FIG. 5
Method: The liposomes were prepared by the conventional method. Briefly, cationic lipids and co-lipids (Cholesterol, DOPE, DOPC) at 2:1 molar ratios were dissolved in chloroform. The solvent was then evaporated under a thin stream of nitrogen gas, vacuum dried for 8 h and hydrated in deionised water overnight to give a final lipid concentration of 1 mM for in vitro experiments or 5 mM for in vivo experiments. The hydrated lipid film was first vortexed for 30 seconds and then sonicated until clarity using a Branson 450 sonifier at 100% duty cycle and 25 W output power. The resulting clear aqueous liposomes were used in preparing lipoplexes.
(§1) Cells were seeded at a density of 25000 (for RAW 264.7) per well in a 96-well plate for 18-24 h before the transfection. 0.3 μg (0.9 nmol) of plasmid DNA was complexed with varying amounts of lipids (1 nmol-8 nmol) in serum free medium (total volume made up to 100 μL) for 30 minutes. The charge ratios were varied from 1:1 to 8:1 over these ranges of the lipids. Immediately prior to transfection, cells plated in the 96-well plate were washed with PBS (2×100 μL) followed by the addition of lipoplexes. After 4 h of incubation, the medium was replaced with fresh complete medium containing 10% FBS. The luciferase reporter gene activity was estimated after 24 h. The cells were washed twice with PBS (100 pt each) and lysed in 50 μL lysis buffer. Care was taken to ensure complete lysis. 10 μL Promega luciferase assay buffer was added to the 5 μL lysate in a polystyrene plate and the luciferase activity per well was estimated using a FLx800 microplate luminescence reader (Bio-Tek instruments, INC, UK). Protein concentration in each well was determined by the modified Lowry method (Lundqvist A, et al. J Immunother. 2002, 25, 445-454) and the luciferase activity was expressed as the relative light unit (RLU) per mg of the protein.
(§2) Each transfection experiment was repeated two times on two different days. The transfection values reported were average values from two replicate transfection plates assayed on the same day. When mannan was used, the cells were pretreated for 30 mins at 37° C., 5% CO2 with mannan (50 μg), and the transfection was carried out in its presence. After 4 h at 37° C., the medium was replaced with fresh complete medium without mannan and the transfection activity was evaluated after 24 h as described above.

RAW 264.7 cells [2] = assay: Mannose receptor specific transfection of RAW 264.7 cells in presence and absence of mannan; assay type: cell-based, murine; conditions: DOPE as co-lipid; lipid:DNA ratio 8:1 to 1:1; 50 μg mannan; FIGS. 6-8
Method: as §1, §2

NIH3T3 cells = assay: Transfection of NIH3T3 cells (no mannose receptor) in presence and absence of mannan; assay type: cell-based, murine; conditions: DOPE as co-lipid, lipid:DNA ratio 8:1 to 1:1, 50 μg mannan, FIGS. 6-8
Method: as §1, §2

[3] = test system: mouse bone marrow derived dendritic cells; assay: DC-transfection with pα5GFP lipoplexes, flow cytometric analysis of GFP expression; assay type: cell-based, C57BL/6J mice; conditions: mbmDCs; for efficacies in delivering genes to dendritic cells relative to mannosyl analog 3: flow cytometry (FIG. 11) and fluorescence microscopy (FIG. 12)
Method: Primary mbmDCs were isolated using a previously described procedure (Inaba K, et al. J Exp Med 1992; 176:1693-1702). Briefly, bone marrow collected from tibias and fibulas of male C57BL/6 mice was passed through a nylon mesh to remove bone and debris, and resuspended in complete DC medium (RPMI-1640 containing 10% FBS, 50 μM β-mercaptoethanol, 2 mM glutamine, 1% NEAA, 20 ng/mL GM-CSF and 10 ng/mL IL-4, 1% antibiotic solution). Cells were supplemented with fresh DC medium every two days. After 6 days, the aggregated cells were dislodged by gently pipetting RPMI over the adherent stroma. The dislodged cells were pulled together and centrifuged at 280 g for […] at room temperature. The supernatant was discarded. The pellets were first resuspended in complete DC medium at 1×10^6 cells/mL and finally placed in 100 mm cell culture petri dishes at 1×10^7 cells/dish in 10 mL medium per dish. After 24 h, the nonadherent cells were collected by gently swirling the dish and were used for transfection and flow cytometry experiments. Cultures were maintained in a humidified atmosphere with 5% CO2 at 37° C.
First, the transfection efficiency of the lipids 1, 2 & 3 were evaluated in mouse bone marrow derived dendritic cells. To this end, the immature dendritic cells were isolated from the bone marrow of C57BL/6J mice by culturing with GM-CSF and IL-4 following the protocol described above. […] The profiles of the DC markers were monitored by flow cytometry. […] After confirming the presence of these expected DC markers on the surface of the isolated DCs, the transfection efficiencies of the cationic amphiphiles 1, 2 & 3 were evaluated in mbmDCs. […] Lipoplexes containing 3 μg of plasmid DNA encoding green fluorescence protein (pα5GFP) and 8 nmol cationic amphiphiles 1, 2 & 3 were added to the cells and incubated for 4 h at 37° C. in serum free medium with 5% CO2. […] The transfection efficiencies of the cationic amphiphiles 1, 2 & 3 were measured by Flow cytometric analysis.

[4] = Dendritic cell based genetic immunization (s.c. pre-transfected mbmDCs), anti β-gal antibody ELISA; assay type: in vivo, C57BL/6J mice; conditions: s.c. 5×10^5 pre-transfected mbmDCs twice with 7-day interval; sera two weeks after second immunization; Part A, FIG. 13
Method: The transfected mbmDCs were harvested by DC isolation protocol described above and washed with PBS (2×100 μL). The cells were resuspended in HBSS medium at 5×10^5 cells/100 μL. 6-8 weeks old female C57BL/6J mice (n=5, each weighing 20-22 g) were immunized (s.c.) with 100 μL of transfected mbmDCs (˜5×10^5 cells) twice with a 7-day interval. Two weeks after the second immunization, mice were sacrificed and sera & spleens were collected for immune response assays.
Anti-β-gal antibodies were measured using an enzyme linked immunosorbent (ELISA) assay as described earlier (McKeever, U. et al. Vaccine 2002; 20:1524-1531). Briefly, 96 well ELISA plates were coated with β-gal protein (0.3 μg per well) using a 5 μg/mL stock solution prepared in PBS. Plates were washed with PBS (3×200 μL) and blocked with 1% BSA in PBS at room temperature for 2 h. The plates were then washed with PBS containing 0.05% Tween-20 (3×200 μL) and incubated with mouse sera (100 μL) at room temperature for 2 h. The plates were again washed with PBS containing 0.05% Tween-20 (3×200 μL) and 100 μL of diluted (1:1000) anti-mouse antibody conjugated to horse radish peroxidase was added to each well. […] The plates were then incubated in dark with 100 μL of ABTS (Calbiochem, USA) per well at 25° C. for 10 min and the absorbance was measured at 405 nm by ELISA reader (Bio-Tek instruments Inc, UK).

## 2-[(N,N-di-n-hexadecyl-N-methyl)amino]-ethylL-L-lysyl-quinate chloride [lipid 2]
RAW 264.7 cells [1]
  in vitro transfection efficiencies relative to control mannosylated lipid 3: higher in vitro transfection efficiencies than their control mannosylated lipid 3
  transfection efficiencies with DOPC as co-lipid compared to DOPE as co-lipid: enhanced further
RAW 264.7 cells [2]
  transfection efficiencies when cells were pretreated with mannan: significantly diminished
NIH3T3 cells
  transfection efficiency when cells were pretreated with mannan: did not get affected
[3]
  efficacies in delivering genes to dendritic cells relative to mannosyl analog 3: superior to those of their mannosyl analog 3
[4]
  anti β-gal antibody responses relative to mannosyl analog 3: higher anti β-gal antibody responses

## 2-[(N,N-di-n-hexadecyl-N-methyl)amino]-ethylL-L-lysyl-shikimate chloride [lipid 1]
RAW 264.7 cells [1]
  in vitro transfection efficiencies relative to control mannosylated lipid 3: higher in vitro transfection efficiencies than their control mannosylated lipid 3
  transfection efficiencies with DOPC as co-lipid compared to DOPE as co-lipid: enhanced further
RAW 264.7 cells [2]
  transfection efficiencies when cells were pretreated with mannan: significantly diminished
NIH3T3 cells
  transfection efficiency when cells were pretreated with mannan: did not get affected
[3]
  efficacies in delivering genes to dendritic cells relative to mannosyl analog 3: superior to those of their mannosyl analog 3
[4]
  anti β-gal antibody responses relative to mannosyl analog 3: higher anti β-gal antibody responses

## 2-[(N,N-di-n-hexadecyl-N-methyl)amino]-ethylL-L-lysyl-β-D-Mannoside chloride [lipid 3, reference compound]
RAW 264.7 cells [1]
  transfection efficiencies with DOPC as co-lipid compared to DOPE as co-lipid: enhanced further
RAW 264.7 cells [2]
  transfection efficiencies when cells were pretreated with mannan: significantly diminished
NIH3T3 cells
  transfection efficiency when cells were pretreated with mannan: did not get affected
[3]; 3 μg pα5GFP plasmid, 8 nmol cationic amphiphile, FIG. 11
  DC transfection efficiency (GFP expression by FACS): 5%
